Laboratory results from patent US4757089A, “Increasing aqueous humor outflow” (Massachusetts Eye and Ear Infirmary, priority 1986, dated 1988).
Counter-ions that a name gives are not always drawn. Like-named read-outs stand apart in the source and are kept apart here.

Key:
calf eye = conditions: perfused calf eye, 15 mm Hg, 22° C.; cited from earlier work
monkey eye = conditions: perfused monkey eye, 15 mm Hg, 22° C.; cited from earlier work
aqueous humor outflow = test: Two-step constant pressure perfusion, aqueous humor outflow facility in monkeys; assay type: in vivo, cynomologous monkeys
Source text: (§1) Ethacrynic acid (sodium salt) was used to increase aqueous humor outflow in cynomologous monkeys, as described below. Ethacrynic acid can be purchased from Merck, Sharp, and Dome, and is described in U.S. Pat. No. 3,255,241, hereby incorporated by reference. Ethacrynic acid has the chemical formula [2,3-dichloro-4-(2-methylene-1-oxobutyl) phenoxy] acetic acid. Any suitable analogs described in U.S. Pat. No. 3,255,241 can also be used as described herein.
Each animal was randomly assigned one eye for the experimental and the other for its control perfusion. The animals were fasted the night before the experiment. They were anesthetized intramusclarly with Methohexital Sodium 15 mg/kg and Pentobarbital Sodium 35 mg/kg. Supplemental anesthesia as required was carried out with Pentobarbital 10 mg/kg/hour. Needles were placed through the cornea into the anterior chamber and a two-step constant pressure perfusion method was performed in order to determine aqueous humor outflow facility. […]
Each vial of ethacrynic acid contained ethacrynate sodium powder equivalent to 50 mg of ethacrynic acid. […] The solution was mixed at room temperature until dissolved, and the pH was determined (always 7.2) before use; the solution was filtered with a 0.2 micron filter (Nuclepore); this produced a solution which was stable for twenty four hours. […]

eye [1] = test: Ocular changes and side effects after anterior chamber perfusion in monkeys; assay type: in vivo, cynomologous monkeys
Source text: as §1
(§2) Each animal was randomly assigned one eye for the experimental and the other for its control perfusion. The animals were fasted the night before the experiment. They were anesthetized intramusclarly with Methohexital Sodium 15 mg/kg and Pentobarbital Sodium 35 mg/kg. Supplemental anesthesia as required was carried out with Pentobarbital 10 mg/kg/hour. Needles were placed through the cornea into the anterior chamber and a two-step constant pressure perfusion method was performed in order to determine aqueous humor outflow facility. The basic medium for perfusion was Dulbecco's phosphate buffered saline with added 5.5 mM glucose. A 10 microliter bolus of the experimental or control solution (that would produce the desired final concentration in the anterior chamber) was injected through a T shaped connector piece in the infusion line.
(§3) Each vial of ethacrynic acid contained ethacrynate sodium powder equivalent to 50 mg of ethacrynic acid. […] The powder was diluted with the above basic medium (Dulbecco's with added glucose) to yield the desired concentration. The solution was mixed at room temperature until dissolved, and the pH was determined (always 7.2) before use; the solution was filtered with a 0.2 micron filter (Nuclepore); this produced a solution which was stable for twenty four hours.
During perfusion experiments, a 10 microliter bolus injection was made using a Hamilton syringe. Since the monkey anterior chamber is approximately 200 microliters, our calculations were as follows. To achieve a final concentration of 0.5 mM ethacrynic acid, 10 microliters of 10 mM ethacrynic acid was infused.
Experiments were carried out using final ethacrynic acid concentrations in the aqueous humor of 0.1 mM to 0.5 mM. There were at least three animals and separate experiments carried out for each of the concentrations […], 0.25 mM, and […].

intraocular pressure [2] = test: Intraocular pressure in monkeys a few days after perfusion; assay type: in vivo, cynomologous monkeys; conditions: both eyes
Procedure: as §2

intraocular pressure [3] = test: Intraocular pressure after topical instillation in rabbits (Digilab Pneumotonometer); assay type: in vivo, Dutch-belted rabbits; conditions: 10 mM and 3% methylcellulose, twenty four hours after instillation, fourteen rabbits, changed from 23.0, p less than 0.001, control eye 22.9 to 24.2
Procedure: For rabbit experiments Dutch-belted rabbits of either sex weighing 1.5 to 2 kg were used for topical studies. Each animal was randomly assigned one eye for the experimental and the other for its control solution. Intraocular pressure was measured using a Digilab Pneumotonometer. Any animals showing asymmetry of intraocular pressure greater than 2 mm were excluded form the study.
The protocol was as follows. Baseline intraocular pressure was taken in each eye using 0.5% proparacaine hydrochloride for topical anesthesia. Then a 100 microliter drop of either control solution or ethacrynic acid dissolved in 3% methylcellulose was instilled into one of the two eyes. In a half hour this was repeated. Two hours later intraocular pressure was measured in each eye. In some animals intraocular pressure was also measured five hours later and all animals had measurement of intraocular pressure the following day.
Ethcrynic acid powder was dissolved in 3% methylcellulose to yield the desired concentration. The solution was mixed at room temperature for one hour and was stable for twenty four hours. A similar osmotically balanced control solution was prepared. […] The pH of the solution was determined by mixing one part of the control or experimental solution with five parts of distilled water. […]

eye [4] = test: Ocular side effects after topical instillation in rabbits; assay type: in vivo, Dutch-belted rabbits
[5] = assay type: physicochemical
Procedure: as §3
Ethcrynic acid powder was dissolved in 3% methylcellulose to yield the desired concentration. The solution was mixed at room temperature for one hour and was stable for twenty four hours. A similar osmotically balanced control solution was prepared. 3% methylcellulose was prepared as follows: methylcellulose powder (4000 CPS) was obtained from Dow company (lot number 14728). A 3% solution was prepared from powder dissolved in distilled water using low heat for several hours. The solution was refrigerated over night to yield a transparent, viscous fluid. The pH of the solution was determined by mixing one part of the control or experimental solution with five parts of distilled water. The pH ranged between 6.2 and 6.5 for both the control and experimental solutions. The 3% methylcellulose solution was refrigerated when not in use.

Water solubility = assay type: physicochemical; conditions: volume not given

SMILES: CCN1C(=O)C=CC1=O [NEM, N-ethylmaleimide]
- dosage producing a significant increase in the facility of outflow (calf eye): ≥ 4.7 mM
- effect on outflow in the monkey eye (monkey eye): increase in outflow

SMILES: C=C(CC)C(=O)c1ccc(OCC(=O)O)c(Cl)c1Cl [ethacrynic acid, [2,3-dichloro-4-(2-methylene-1-oxobutyl)phenoxy] acetic acid]
- outflow facility response (aqueous humor outflow; 0.25 mM final concentration): approximately half the animals perfused responded with a substantial increase in outflow facility
- outflow facility effect (aqueous humor outflow; lower dosages (below 0.25 mM; 0.1 mM tested)): no effect
- pupil dilation in treated eye (eye [1]; dosages above 0.25 mM): some of the animals developed a dilated pupil
- adhesions of the iris to the peripheral cornea (eye [1]; experimental and control eyes, believed to result from perfusion technique): A small number of animals in both the experimental and control eyes developed adhesions of the iris to the peripheral cornea
- chronic corneal edema, opacities or cataract formation (eye [1]; monkey perfusion): no chronic corneal edema or opacities or cataract formation
- corneal or crystalline lens changes (eye [1]; monkey perfusion): no apparent corneal or crystalline lens changes
- intraocular pressure (intraocular pressure [2]): symmetrical and normal in both eyes
- intraocular pressure in treated eye, 24 h (intraocular pressure [3]): 20.0 mmHg
- conjunctival injection (eye [4]; 5 mM, topical): slight conjunctival injection
- conjunctival injection and irritation (eye [4]; 10 mM, topical): moderate conjunctival injection and signs of irritation
- reversibility of corneal toxicity and inflammation (eye [4]; higher concentrations (above 10 mM)): resolved without apparent seguelae
- corneal toxicity and anterior chamber inflammation (eye [4]; higher concentrations (above 10 mM), for several days): signs of corneal toxicity (corneal edema) and anterior chamber inflammation
- stability of solution [5]: twenty four
- stability of solution ([5]; pH 7.2): twenty four

SMILES: C=C(CC)C(=O)c1ccc(OCC(=O)O)c(Cl)c1Cl [sodium salt of ethacrynic acid]
- solubility in water (Water solubility): about 0.04 g
